Measured values reported in patent US20230021957A1, “USE OF PSILOCIN, […] ANALOGS THEREOF IN WEIGHT LOSS, TREATMENT OF OBESITY AND COMPULSIVE EATING DISORDER” (NEONMIND BIOSCIENCES INC., priority 2019, published 2023).

Experiments:
[1] = Weight loss in obese males, gel tabs on weekdays for 2 months; assay type: in vivo, human; settings: 2.5 mg gel tab every morning on weekdays
Experimental: 12 males all weighing between 250 and 275 lbs and all having BMI indexes between 30 and 35 kg/m^2 are split into two groups. The first is provided with placebo gel tabs; the second with indistinguishable gel tabs containing 2.5 mg of purified synthetically produced psilocin in a pharmaceutically acceptable carrier. Both groups are instructed to take one gel tab every morning, before breakfast, on weekdays, with weekends off, for 2 months. At the end of the two months, the first (placebo) group is found to have a similar weight as before the treatment, whereas the treatment group loses an average of 12 lbs each.

[2] = Weight gain of rats on a high calorie diet, once daily psilocybin for five days; assay type: in vivo, Sprague-Dawley rats; settings: for total weight gain over the 5 day period: control 27.8
Experimental: In order to determine whether psilocybin has anorectic—and therefore weight loss—properties, a preclinical study of the drug was conducted, using a well-validated animal model. Rodent models of food consumption and weight gain have a strong homology with humans, as rodents are omnivores with a very similar metabolic physiology. […] The goal of the present study was to cause accelerated weight gain with a high calorie diet, consisting of a highly palatable food with a large proportion of fat and carbohydrate, compared to standard animal food, which is designed to maintain a healthy weight. We evaluated whether treatment with two different doses of psilocybin could reduce the accelerated weight gain caused by this diet.
Adult, male Sprague-Dawley rats were purchased from the animal supplier, and then housed in pairs in polycarbonate cages, with access to water and standard rat food ad libitum. Rats were given a period of time to acclimate to the animal colony. They were then all given unlimited access to a highly palatable diet that is very high in carbohydrate and fat (consisting predominantly of a hazelnut-flavored chocolate spread combined with peanut butter) that has been used routinely in multiple published studies with rats to study rapid weight gain (Hansen et al., Acta pharmacologica Sinica. 2012; 33(2):194-200). Animals were randomly assigned to one of three treatment groups, which consisted of once daily administration of either a lower dose (5 mg/kg; n=7 animals) of psilocybin, a higher dose (20 mg/kg; n=7 animals) of psilocybin, or no psilocybin (n=12 animals). The psilocybin was supplied by the Katz Group at the University of Alberta, and was legally approved by an exemption from Health Canada.
Rats were administered the drug approximately two hours before the lights went off in the animal colony, which is when feeding typically commences. Animals were free to consume as much of the regular rat food or high calorie diet as they wished. They were weighed each day prior to drug treatment, to determine how much weight had been gained in the previous 24 hours. The study administered the drug over five consecutive days. Data were statistically analyzed by (SPSS Version 24 software package) using a one-way Analysis of Variance (ANOVA) with a LSD-post hoc test to detect between-group differences.

[3] = test system: compulsive eating disorder; test: Self-reported instances of compulsive eating over two months; settings: once a day with breakfast for two months; compared to first two months without treatment

## CN(C)CCc1c[nH]c2cccc(O)c12 [psilocin, 4-hydroxy-N,N-dimethyltryptamine]
[1]
  fasting glucose levels: lower fasting glucose levels
  insulin resistance: decreased insulin resistance
  levels of hypertension: lower levels of hypertension
  lipid count in the blood stream: lower lipid count in the blood stream
[1]; males 250-275 lbs, BMI 30-35
  average weight loss: 12 lbs

## CN(C)CCc1c[nH]c2cccc(OP(=O)(O)O)c12 [psilocybin]
[2]; 5 mg/kg once daily, 5 days
  reduction in weight gain vs control: 31%
[2]; 5 mg/kg once daily
  total weight gain over the 5 day period: 19.4 grams
[2]; 20 mg/kg
  cumulative weight gain, day-by-day comparison with controls: significantly reduced weight gain compared to controls by Day 3
  relative weight gain, day-by-day comparison with controls: gained statistically less relative weight by day 3
[2]; 20 mg/kg once daily, 5 days
  reduction in weight gain vs control: 28%
[2]; 20 mg/kg once daily
  total weight gain over the 5 day period: 20.1 grams
[2]; both doses of psilocybin
  decrease of weight gain (summary): approximately one third
[2]; both psilocybin groups (5 and 20 mg/kg), 5 days, controls 8.4%
  total relative weight gain (relative to baseline weight): 5.7%
[2]; both psilocybin groups (5 and 20 mg/kg), 5 days, p=0.01
  decrease in relative weight gain vs controls: 32%
[2]; both psilocybin groups (5 and 20 mg/kg), p<0.05
  relative weight gain, day-by-day comparison with controls: gained less relative weight by day 4
[2]; both psilocybin-treated groups (5 and 20 mg/kg once daily), control 5-8
  weight gain per day: 1-8 grams per day
[2]; both psilocybin-treated groups (5 and 20 mg/kg)
  cumulative weight gain, day-by-day comparison with controls: significantly decreased weight gain compared to controls
[3]
  self-reported instances of compulsive eating: decrease in compulsive eating
